According to PubChem BioAssay AID1963872 (Molecular Pharmacology Branch, DTP, NCI, 2024):

System: KRAS patient-derived spheroids with HUVEC/MSC, viability
Experiment: Anticancer human tumor 519858-162-T-J1-PDC patient-derived colon adenocarcinoma cell line growth inhibition [KRAS2]
Settings: for IC50: curve of first compound; for viability, T/C: stronger effect = lower value
Summary of the method: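 KRAS-mutant tumor cells were grown as spheroids with HUVEC endothelial cells and human MSCs as stroma. Targeted agents were tested alone and with KRAS pathway inhibitors. Doses started at or near clinical Cmax, or 10 microM, descending half-log.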

[1] = second compound 0.1 µM, first compound 0.0316 µM
[2] = second compound 0.1 µM, first compound 0.1 µM
[3] = second compound 0.1 µM, first compound 0.316 µM
[4] = second compound 0.1 µM, first compound 1 µM
[5] = second compound 0.1 µM, first compound 3.16 µM
[6] = second compound 0.1 µM, first compound 10 µM
[7] = second compound 0.316 µM, first compound 0.0316 µM
[8] = second compound 0.316 µM, first compound 0.1 µM
[9] = second compound 0.316 µM, first compound 0.316 µM
[10] = second compound 0.316 µM, first compound 1 µM
[11] = second compound 0.316 µM, first compound 3.16 µM
[12] = second compound 0.316 µM, first compound 10 µM
[13] = second compound 1 µM, first compound 0.0316 µM
[14] = second compound 1 µM, first compound 0.1 µM
[15] = second compound 1 µM, first compound 0.316 µM
[16] = second compound 1 µM, first compound 1 µM
[17] = second compound 1 µM, first compound 3.16 µM
[18] = second compound 1 µM, first compound 10 µM
[19] = second compound 3.16 µM, first compound 0.0316 µM
[20] = second compound 3.16 µM, first compound 0.1 µM
[21] = second compound 3.16 µM, first compound 0.316 µM
[22] = second compound 3.16 µM, first compound 1 µM
[23] = second compound 3.16 µM, first compound 3.16 µM
[24] = second compound 3.16 µM, first compound 10 µM
[25] = second compound 10 µM, first compound 0.0316 µM
[26] = second compound 10 µM, first compound 0.1 µM
[27] = second compound 10 µM, first compound 0.316 µM
[28] = second compound 10 µM, first compound 1 µM
[29] = second compound 10 µM, first compound 3.16 µM
[30] = second compound 10 µM, first compound 10 µM
[31] = second compound 0.1 µM, first compound 0.000316 µM
[32] = second compound 0.1 µM, first compound 0.001 µM
[33] = second compound 0.1 µM, first compound 0.00316 µM
[34] = second compound 0.1 µM, first compound 0.01 µM
[35] = second compound 0.316 µM, first compound 0.000316 µM
[36] = second compound 0.316 µM, first compound 0.001 µM
[37] = second compound 0.316 µM, first compound 0.00316 µM
[38] = second compound 0.316 µM, first compound 0.01 µM
[39] = second compound 1 µM, first compound 0.000316 µM
[40] = second compound 1 µM, first compound 0.001 µM
[41] = second compound 1 µM, first compound 0.00316 µM
[42] = second compound 1 µM, first compound 0.01 µM
[43] = second compound 3.16 µM, first compound 0.000316 µM
[44] = second compound 3.16 µM, first compound 0.001 µM
[45] = second compound 3.16 µM, first compound 0.00316 µM
[46] = second compound 3.16 µM, first compound 0.01 µM
[47] = second compound 10 µM, first compound 0.000316 µM
[48] = second compound 10 µM, first compound 0.001 µM
[49] = second compound 10 µM, first compound 0.00316 µM
[50] = second compound 10 µM, first compound 0.01 µM
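Also: compound exposure lasted seven days before readout.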
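For viability, T/C in this document: 100% = DMSO vehicle control viability.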

Structure (SMILES) | IC50 (second compound 0.1 µM) [nM] | IC50 (second compound 0.316 µM) [nM] | IC50 (second compound 1 µM) [nM] | IC50 (second compound 3.16 µM) [nM] | IC50 (second compound 10 µM) [nM] | viability, T/C [1] [%] | viability, T/C [2] [%] | viability, T/C [7] [%] | viability, T/C [8] [%] | viability, T/C [13] [%] | viability, T/C [14] [%] | viability, T/C [19] [%] | viability, T/C [20] [%] | viability, T/C [25] [%] | viability, T/C [26] [%] | viability, T/C [34] [%] | viability, T/C [38] [%] | viability, T/C [42] [%] | viability, T/C [46] [%] | viability, T/C [50] [%] | other results
COc1cc(Nc2ncc3c(n2)-c2ccc(Cl)cc2C(c2c(F)cccc2OC)=NC3)ccc1C(=O)O + CNCc1ccccc1-c1csc(C(C)Nc2nc(C)nc3cc(OC)c(OC)cc23)c1 | > 10000 | > 10000 | > 10000 | > 10000 | < 31.6 | 95.9 | 93.5 | 96.5 | 91.5 | 77.2 | 78.2 | 58.2 | 54.6 | 0.42 | 0.37 | – | – | – | – | – | viability, T/C [3]: 79.1%; viability, T/C [4]: 85%; viability, T/C [5]: 88.4%; viability, T/C [6]: 103%; viability, T/C [9]: 56.2%; viability, T/C [10]: 78.6%; viability, T/C [11]: 87.6%; viability, T/C [12]: 71.2%; viability, T/C [15]: 73%; viability, T/C [16]: 70%; viability, T/C [17]: 71.2%; viability, T/C [18]: 62.1%; viability, T/C [21]: 60.9%; viability, T/C [22]: 65.6%; viability, T/C [23]: 74.2%; viability, T/C [24]: 67.4%; viability, T/C [27]: 0.36%; viability, T/C [28]: 0.31%; viability, T/C [29]: 0.37%; viability, T/C [30]: 0.84%
CC(C)n1nc(-c2ccc3oc(N)nc3c2)c2c(N)ncnc21 + CC1OCC2(CCN(c3cnc(Sc4ccnc(N)c4Cl)c(N)n3)CC2)C1N | > 100 | > 100 | > 100 | > 100 | > 100 | 86.2 | 77 | 71.3 | 65.5 | 89.7 | 80.7 | 91.8 | 92.9 | 112 | 100 | 89.7 | 60.8 | 102 | 93.9 | 105 | viability, T/C [31]: 92.4%; viability, T/C [32]: 90.3%; viability, T/C [33]: 100%; viability, T/C [35]: 104%; viability, T/C [36]: 85.6%; viability, T/C [37]: 88.6%; viability, T/C [39]: 86.5%; viability, T/C [40]: 84.9%; viability, T/C [41]: 78%; viability, T/C [43]: 60.2%; viability, T/C [44]: 91.6%; viability, T/C [45]: 90.1%; viability, T/C [47]: 76.8%; viability, T/C [48]: 85.7%; viability, T/C [49]: 89.2%
CN(C)C/C=C/C(=O)Nc1cc2c(Nc3ccc(F)c(Cl)c3)ncnc2cc1O[C@H]1CCOC1 + CC1OCC2(CCN(c3cnc(Sc4ccnc(N)c4Cl)c(N)n3)CC2)C1N | > 100 | 19.7 | > 100 | 4.46 | 58.2 | 70.3 | 64.3 | 55.1 | 40.4 | 90.8 | 67.4 | 39.4 | 36.8 | 53.3 | 46.4 | 93.6 | 53.3 | 71.2 | 59.3 | 72.9 | viability, T/C [31]: 76.6%; viability, T/C [32]: 77.2%; viability, T/C [33]: 68%; viability, T/C [35]: 78.1%; viability, T/C [36]: 75%; viability, T/C [37]: 85.8%; viability, T/C [39]: 74.4%; viability, T/C [40]: 74.1%; viability, T/C [41]: 78.8%; viability, T/C [43]: 53.6%; viability, T/C [44]: 55.6%; viability, T/C [45]: 38.9%; viability, T/C [47]: 80%; viability, T/C [48]: 81.7%; viability, T/C [49]: 71.3%
CN(C)C/C=C/C(=O)Nc1cc2c(Nc3ccc(F)c(Cl)c3)ncnc2cc1O[C@H]1CCOC1 + COc1cc2nc(C)nc(NC(C)c3cc(N)cc(C(F)(F)F)c3)c2cc1OC1CCOC1 | > 100 | > 100 | > 100 | 81.3 | > 100 | 78.7 | 81.2 | 90.8 | 98.9 | 95.5 | 91.2 | 75.5 | 44.5 | 70.3 | 62.3 | 92.6 | 73.5 | 101 | 88.3 | 88.3 | viability, T/C [31]: 87%; viability, T/C [32]: 91.3%; viability, T/C [33]: 92.7%; viability, T/C [35]: 93%; viability, T/C [36]: 73.7%; viability, T/C [37]: 73.4%; viability, T/C [39]: 138%; viability, T/C [40]: 146%; viability, T/C [41]: 101%; viability, T/C [43]: 85.6%; viability, T/C [44]: 80.7%; viability, T/C [45]: 90.3%; viability, T/C [47]: 73.2%; viability, T/C [48]: 62.5%; viability, T/C [49]: 76.9%
CC1COCCN1c1cc(-c2ccnn2C)c2ccnc(-c3ccn[nH]3)c2n1 (stereo not given) + CC1OCC2(CCN(c3cnc(Sc4ccnc(N)c4Cl)c(N)n3)CC2)C1N | 2480 | 2280 | 2100 | > 3160 | > 3160 | 89.2 | 72.5 | 75.6 | 87.3 | 75.3 | 82.2 | 83.9 | 65.8 | 74.2 | 61.6 | 97.8 | 87 | 95.4 | 83.4 | 81.7 | viability, T/C [3]: 88.4%; viability, T/C [4]: 90.1%; viability, T/C [5]: 40%; viability, T/C [9]: 80.4%; viability, T/C [10]: 77.7%; viability, T/C [11]: 39.1%; viability, T/C [15]: 75.8%; viability, T/C [16]: 67.3%; viability, T/C [17]: 41.1%; viability, T/C [21]: 70.4%; viability, T/C [22]: 60.6%; viability, T/C [23]: 53.9%; viability, T/C [27]: 47.7%; viability, T/C [28]: 51%; viability, T/C [29]: 53.3%
CC(C)NCC(C(=O)N1CCN(c2ncnc3c2C(C)CC3O)CC1)c1ccc(Cl)cc1 (stereo not given) + CC1OCC2(CCN(c3cnc(Sc4ccnc(N)c4Cl)c(N)n3)CC2)C1N | > 10000 | > 10000 | > 10000 | > 10000 | > 10000 | 83.1 | 84.9 | 93 | 55.3 | 77 | 71.9 | 59.7 | 70.9 | 69.5 | 56.3 | – | – | – | – | – | viability, T/C [3]: 54.9%; viability, T/C [4]: 61.9%; viability, T/C [5]: 64%; viability, T/C [6]: 88.8%; viability, T/C [9]: 55.9%; viability, T/C [10]: 44%; viability, T/C [11]: 60.1%; viability, T/C [12]: 70.9%; viability, T/C [15]: 58.7%; viability, T/C [16]: 62%; viability, T/C [17]: 59.2%; viability, T/C [18]: 69.3%; viability, T/C [21]: 56.1%; viability, T/C [22]: 55.2%; viability, T/C [23]: 51.8%; viability, T/C [24]: 61%; viability, T/C [27]: 65.9%; viability, T/C [28]: 66.1%; viability, T/C [29]: 68.9%; viability, T/C [30]: 56.4%
